Source: US9611277B2 (Janssen Pharmaceutica NV, priority 2013, dated 2017)

Legend:
human orexin 2 receptor = human orexin 2 receptor (Homo sapiens (Human), UniProt O43614); experiment: Human orexin 2 receptor radioligand binding; conditions: human orexin 2 receptor; averages of 2-20 runs; read-out: hOX2 Ki
Procedure, shortened: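 HEK293 cells stably expressing human OX2 receptor, homogenized, incubated with [3H]-EMPA and compounds (DMSO ≤0.1%); nonspecific binding with 10 μM almorexant. Filter-bound radioactivity counted by scintillation; IC50 from one-site competition fit of triplicates, Ki from IC50 and predetermined radioligand Kd, averaged over 2-20 runs.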

rat orexin 1 receptor = rat orexin 1 receptor (Rattus norvegicus, UniProt P56718); experiment: Rat orexin 1 receptor radioligand binding; conditions: rat orexin 1 receptor; averages of 2-20 runs; read-out: rOX1 Ki
Procedure, shortened: (§1)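 Competition binding with the tritiated thiazolyl-pyrrolidinyl-methanone radioligand in PBS on homogenized rat or human OX1R-expressing cell suspensions, ≤0.1% DMSO; nonspecific binding defined with 10 μM almorexant. Bound radioactivity read by scintillation after filtration; IC50 from one-site competition fit, converted to Ki using pre-determined radioligand Kd.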

human orexin 1 receptor = human orexin 1 receptor (Homo sapiens, UniProt O43613); experiment: Human orexin 1 receptor radioligand binding; conditions: human orexin 1 receptor; averages of 2-20 runs; read-out: hOX1 Ki
Procedure, shortened: as §1

Sequence of human orexin 2 receptor (O43614 whole entry): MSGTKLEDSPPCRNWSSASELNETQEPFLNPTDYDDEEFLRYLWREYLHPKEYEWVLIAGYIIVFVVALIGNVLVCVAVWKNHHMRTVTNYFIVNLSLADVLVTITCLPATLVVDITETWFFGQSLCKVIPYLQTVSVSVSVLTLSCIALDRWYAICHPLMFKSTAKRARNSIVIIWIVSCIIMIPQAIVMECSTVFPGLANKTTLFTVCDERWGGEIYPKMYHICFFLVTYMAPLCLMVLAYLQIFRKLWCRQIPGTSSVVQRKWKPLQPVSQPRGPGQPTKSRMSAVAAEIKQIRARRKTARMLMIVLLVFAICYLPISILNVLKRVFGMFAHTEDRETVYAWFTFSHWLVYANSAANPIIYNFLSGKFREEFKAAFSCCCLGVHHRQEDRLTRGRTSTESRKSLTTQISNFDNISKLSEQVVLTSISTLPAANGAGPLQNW

Compound	Ki (human orexin 2 receptor) [nM]	Ki (rat orexin 1 receptor) [nM]	Ki (human orexin 1 receptor) [nM]
O=C(c1cccc(F)c1-n1nccn1)N1C[C@H]2C[C@@H](Nc3ccc(C(F)(F)F)cn3)[C@@H]1C2 [Example 144, (3-fluoro-2-(2H-1,2,3-triazol-2-yl)phenyl)((1S,4S,6R)-6-((5-(trifluoromethyl)pyridin-2-yl)amino)-2-azabicyclo[2.2.1]heptan-2-yl)methanone]	133	3	3
O=C(c1ccc(F)cc1-n1nccn1)N1C[C@H]2C[C@@H](Nc3ccc(C(F)(F)F)cn3)[C@@H]1C2 [Example 145, (4-fluoro-2-(2H-1,2,3-triazol-2-yl)phenyl)((1S,4S,6R)-6-((5-(trifluoromethyl)pyridin-2-yl)amino)-2-azabicyclo[2.2.1]heptan-2-yl)methanone]	934	17	7
O=C(c1c(F)cccc1-n1nccn1)N1CC2CC(Nc3ccc(C(F)(F)F)cn3)C1C2 [Example 146, (2-fluoro-6-(2H-1,2,3-triazol-2-yl)phenyl)((1S,4S,6R)-6-((5-(trifluoromethyl)pyridin-2-yl)amino)-2-azabicyclo[2.2.1]heptan-2-yl)methanone]	150	6	3
O=C(c1c(F)cccc1-c1ncccn1)N1C[C@H]2C[C@@H](Nc3ccc(C(F)(F)F)cn3)[C@@H]1C2 [Example 147, (2-fluoro-6-(pyrimidin-2-yl)phenyl)((1S,4S,6R)-6-((5-(trifluoromethyl)pyridin-2-yl)amino)-2-azabicyclo[2.2.1]heptan-2-yl)methanone]	190	5	6
O=C(c1ccccc1-c1ncccn1)N1C[C@H]2C[C@@H](Nc3ccc(C(F)(F)F)cn3)[C@@H]1C2 [Example 148, (2-(pyrimidin-2-yl)phenyl)((1S,4S,6R)-6-((5-(trifluoromethyl)pyridin-2-yl)amino)-2-azabicyclo[2.2.1]heptan-2-yl)methanone]	189	3	5
Cc1cnc(C(=O)N2C[C@H]3C[C@@H](Nc4ccc(C(F)(F)F)cn4)[C@@H]2C3)c(-c2ncccn2)c1 [Example 149, (5-methyl-3-(pyrimidin-2-yl)pyridin-2-yl)((1S,4S,6R)-6-((5-(trifluoromethyl)pyridin-2-yl)amino)-2-azabicyclo[2.2.1]heptan-2-yl)methanone]	4600	14	7
Cc1ccc(-c2ncccn2)c(C(=O)N2C[C@H]3C[C@@H](Nc4ccc(C(F)(F)F)cn4)[C@@H]2C3)n1 [Example 150, (6-methyl-3-(pyrimidin-2-yl)pyridin-2-yl)((1S,4S,6R)-6-((5-(trifluoromethyl)pyridin-2-yl)amino)-2-azabicyclo[2.2.1]heptan-2-yl)methanone]	88	13	9
Cc1cnc(-c2ncccn2)c(C(=O)N2C[C@H]3C[C@@H](Nc4ccc(C(F)(F)F)cn4)[C@@H]2C3)c1 [Example 151, (5-methyl-2-(pyrimidin-2-yl)pyridin-3-yl)((1S,4S,6R)-6-((5-(trifluoromethyl)pyridin-2-yl)amino)-2-azabicyclo[2.2.1]heptan-2-yl)methanone]	5100	21	47
Cc1noc(-c2cc(F)ccc2C(=O)N2C[C@H]3C[C@@H](Nc4ccc(C(F)(F)F)cn4)[C@@H]2C3)n1 [Example 152, (4-fluoro-2-(3-methyl-1,2,4-oxadiazol-5-yl)phenyl)((1S,4S,6R)-6-((5-(trifluoromethyl)pyridin-2-yl)amino)-2-azabicyclo[2.2.1]heptan-2-yl)methanone]	1600	30	16
CCN(c1ccc(C(F)(F)F)cn1)C1CC2CC1N(C(=O)c1cccc(F)c1-c1ncccn1)C2 (stereo not drawn) [Example 160]	208	9	6
O=C(c1cccc(F)c1-c1ncccn1)N1C[C@H]2C[C@@H](N(CC3CC3)c3ccc(C(F)(F)F)cn3)[C@@H]1C2 [Example 161, ((1S,4S,6R)-6-((cyclopropylmethyl)(5-(trifluoromethyl)pyridin-2-yl)amino)-2-azabicyclo[2.2.1]heptan-2-yl)(3-fluoro-2-(pyrimidin-2-yl)phenyl)methanone]	384	14	5

Second part, the molecule after the results:

Ki (human orexin 2 receptor) [nM]	Ki (rat orexin 1 receptor) [nM]	Ki (human orexin 1 receptor) [nM]	Compound
7300	24	34	Cc1ccc(C(=O)N2C[C@H]3C[C@@H](Nc4ccc(C(F)(F)F)cn4)[C@@H]2C3)c(-n2nccn2)n1 [Example 143, (6-methyl-2-(2H-1,2,3-triazol-2-yl)pyridin-3-yl)((1S,4S,6R)-6-((5-(trifluoromethyl)pyridin-2-yl)amino)-2-azabicyclo[2.2.1]heptan-2-yl)methanone]
342	3	3	CN(c1ccc(C(F)(F)F)cn1)[C@@H]1C[C@H]2C[C@@H]1N(C(=O)c1ccccc1-n1nccn1)C2 [Example 153, (2-(2H-1,2,3-triazol-2-yl)phenyl)((1S,4S,6R)-6-(methyl(5-(trifluoromethyl)pyridin-2-yl)amino)-2-azabicyclo[2.2.1]heptan-2-yl)methanone]
329	4	6	CN(c1ccc(C(F)(F)F)cn1)[C@@H]1C[C@H]2C[C@@H]1N(C(=O)c1cccc(F)c1-n1nccn1)C2 [Example 154, (3-fluoro-2-(2H-1,2,3-triazol-2-yl)phenyl)((1S,4S,6R)-6-(methyl(5-(trifluoromethyl)pyridin-2-yl)amino)-2-azabicyclo[2.2.1]heptan-2-yl)methanone]
303	5	3	CN(c1ccc(C(F)(F)F)cn1)[C@@H]1C[C@H]2C[C@@H]1N(C(=O)c1cc(F)ccc1-n1nccn1)C2 [Example 155, (5-fluoro-2-(2H-1,2,3-triazol-2-yl)phenyl)((1S,4S,6R)-6-(methyl(5-(trifluoromethyl)pyridin-2-yl)amino)-2-azabicyclo[2.2.1]heptan-2-yl)methanone]
274	7	5	Cc1ccc(-n2nccn2)c(C(=O)N2C[C@H]3C[C@@H](N(C)c4ccc(C(F)(F)F)cn4)[C@@H]2C3)n1 [Example 156, ((1S,4S,6R)-6-(methyl(5-(trifluoromethyl)pyridin-2-yl)amino)-2-azabicyclo[2.2.1]heptan-2-yl)(6-methyl-3-(2H-1,2,3-triazol-2-yl)pyridin-2-yl)methanone]
340	5	2	CN(c1ccc(C(F)(F)F)cn1)[C@@H]1C[C@H]2C[C@@H]1N(C(=O)c1cc(F)ccc1-c1ncccn1)C2 [Example 158, (5-fluoro-2-(pyrimidin-2-yl)phenyl)((1S,4S,6R)-6-(methyl(5-(trifluoromethyl)pyridin-2-yl)amino)-2-azabicyclo[2.2.1]heptan-2-yl)methanone]
209	6	4	CN(c1ccc(C(F)(F)F)cn1)[C@@H]1C[C@H]2C[C@@H]1N(C(=O)c1c(F)cccc1-c1ncccn1)C2 [Example 159, (2-fluoro-6-(pyrimidin-2-yl)phenyl)((1S,4S,6R)-6-(methyl(5-(trifluoromethyl)pyridin-2-yl)amino)-2-azabicyclo[2.2.1]heptan-2-yl)methanone]
